Measured values from patent US20230391868A1, “COMPOSITIONS FOR AND METHODS OF TREATING CANCER” (The George Washington University, priority 2022, published 2023).

Key:
A31A7 macrophages = assay: Western Blotting of A31A7 macrophages polarized to M2; assay type: cell-based, mouse; conditions: Western Blot, M2 A31A7 (FIG. 7F)
Protocol: Cells were treated with the respective compounds for 24 h. Then, cells were lysed using RIPA buffer (ThermoFisher Scientific Pierce, 89901, Waltham, MA) supplemented with 1× protease and phosphatase inhibitor (ThermoFisher Scientific, A32961). Lysates were sonicated at 4° C. for 8 minutes (8 cycles of 30 sec on, 30 sec off). Protein concentration was quantified using a BCA protein assay (ThermoFisher Scientific, 23225) following manufacturer's instructions. Samples were mixed with 6× Laemmli SDS sample reducing buffer (Alfa Aesar, J61337AC, Tewksbury, MA), and boiled at 80° C. for 10 min. Next, samples were loaded on to 4%-20% gels (Bio-Rad, 4561096, Hercules, CA), transferred to PVDF membranes and blocked with Odyssey Blocking Buffer (LI-COR Biosciences, 927-40000, Lincoln, NE). The following primary antibodies used for immunoblotting were purchased from Cell Signaling Technologies (Danvers, MA): tubulin (3873), acetylated tubulin (3971), arginase-1 (93668), and SIRPα (13379). Primary antibody recognizing HDAC6 was purchased from Assay Biotechnology (C0226, Fremont, CA), and iNOS antibody was purchased from ThermoFisher Scientific (PA3-030A). Bands were detected using Azure Biosystems Imaging System c600 (Azure Biosystems, Dublin, CA).

SIRPα = SIRPα gene expression in mouse macrophages by qRT-PCR; assay type: cell-based; conditions: A31A7 macrophages and BMDMs, unpolarized and polarized, qRT-PCR (FIG. 2A)
Protocol: Bone marrow-derived macrophages were isolated from the femurs and tibias of wild-type C57/Bl6, HDAC6 knockout (C57BL/6J-Hdac6em2Lutzy/J, 029318, Jackson Laboratory), or UBC-GFP (C57BL/6-Tg(UBC-GFP)30Scha/J, 004353, Jackson Laboratory). Isolated bone marrow cells were cultured in RPMI 1640 complete medium with 10% FBS, 1% NEAA, and 1% penicillin-streptomycin in 5% CO2 at 37° C. Medium was supplemented with murine recombinant M-CSF (20 ng/mL, 576404, Biolegend) to differentiate monocytes into macrophages. Three days after bone marrow isolation, undifferentiated and floating cells were washed with PBS and replaced with fresh RPMI media. A3.1A7 cells and BMDMs were pretreated with 5 μM of HDAC6 inhibitor NextA or vehicle prior to adding polarizing cytokines. […]
qRT-PCR: Total RNA was extracted from cells using the Trizol reagent according to manufacturer's instructions (ThermoFisher Scientific, 15596018). […] RNA was quantified using a NanoDrop One Spectrophotometer (ThermoFisher Scientific). […] Target mRNA was quantified using MyIQ single-color real-time PCR detection system from Bio-Rad (Bio-Rad, Hercules, CA) and iQ SYBR green Supermix (Bio-Rad, 1708882). […] Quantification is expressed in arbitrary units and target mRNA levels were normalized to R-actin expression.

mouse SIRPα promoter = assay: SIRPα-luc reporter luciferase assay in A31A7 macrophages; assay type: cell-based; conditions: 10 μM of NextA; untreated transfected cells 32.2-fold (FIG. 2B)
Protocol: The mouse CD47 or SIRPα promoters were cloned into a promoterless pGL4.20[luc2/puro] vector using Genentech's cloning services (San Francisco, CA, USA). Vectors were transfected into SM1 and B16 melanoma cells using Lipofectamine 3000 (L3000008, ThermoFisher) and transfected cells were selected using puromycin. A31A7 macrophages were transiently transfected using jetOPTIMUS DNA transfection reagent (Polyplus, NY, USA). Luminescence was measured using the Luciferase Assay System (E4550, Promega) in a SpectraMax i3× Multi-Mode Microplate Reader (Molecular Devices).
To investigate whether HDAC6 controlled SIRPα expression at the transcriptional level, the mouse SIRPα promoter was cloned into a promoterless pGL4.20 [luc2/puro] vector to create a SIRPα-Luc reporter plasmid. e Nex, A31A7 macrophages were transiently transfected in the absence or presence of 10 μM of NextA and luminescence was evaluated. A31A7 cells were successfully transfected with the SIRPα-luciferase reporter vector as evidenced by a 32.2-fold increase in relative luminescence units (RLU) compared to untransfected cells (FIG. 2B).

Question: Which ARG1 expression (A31A7 macrophages) does the source give for `CCCCN(Cc1ccc(C(=O)NO)cc1)C(=O)Nc1ccccc1` [NextA, Nexturastat A] here?
Answer: decrease

Question: What about the “HDAC6 inhibitor potency compared with Tubacin and Tubastatin A” value (A31A7 macrophages) of the same compound?
Answer: most potent HDAC6 inhibitor

Question: What about the “acetylated tubulin, a marker for HDAC6 inhibition” value (A31A7 macrophages) of the same compound?
Answer: robust increase

Question: What about the “Sirpa expression at the transcriptional level” value (SIRPα) of the same compound?
Answer: significantly downregulated

Question: And the “Sirpa expression at the transcriptional level” value (SIRPα; listed as Nexturastat A)?
Answer: downregulated

Question: And the “increase in relative luminescence units (RLU) compared to untransfected cells” value (mouse SIRPα promoter)?
Answer: 7.7 fold
